Assay results from patent publication US6274715A, “Tricyclic erythromycin derivatives” (priority 1997, dated 2001).
In brackets after ≈: the same amount, converted by molar mass.

Columns and labels:
Type in all cases: cell-based
ESCHERICHIA COLI SS = test: In vitro antibacterial activity, MIC, BHI agar dilution; conditions: E. coli SS, unit assumed
[1] = test system: ENTEROBACTER AEROGENES ATCC 13048; test: as above; conditions: E. aerogenes ATCC 13048, unit assumed
[2] = test system: STAPHYLOCOCCUS AUREUS CMX 642A; test: as above; conditions: S. aureus CMX 642A, unit assumed
[3] = test system: STAPHYLOCOCCUS AUREUS CMX 553; test: as above; conditions: S. aureus CMX 553, unit assumed
ESCHERICHIA COLI H560 = test: as above; conditions: E. coli H560, unit assumed
[4] = test system: PSEUDOMONAS AERUGINOSA DPHD-2862; test: as above; conditions: P. aeruginosa DPHD-2862, unit assumed
[5] = test system: PSEUDOMONAS AERUGINOSA K799/61; test: as above; conditions: P. aeruginosa K799/61, unit assumed
[6] = test system: PSEUDOMONAS AERUGINOSA K799/WT; test: as above; conditions: P. aeruginosa K799/WT, unit assumed
H. Influenza Dill AMP R = test: In vitro antibacterial activity against H. Influenza Dill AMP R, MIC; conditions: separate assay, unit assumed
Method: Representative compounds of the present invention were assayed in vitro for antibacterial activity as follows: Twelve petri dishes containing successive aqueous dilutions of the test compound mixed with 10 mL of sterilized Brain Heart Infusion (BHI) agar (Difco 0418-01-5) were prepared. Each plate was inoculated with 1:100 (or 1:10 for slow-growing strains, such as Micrococcus and Streptococcus) dilutions of up to 32 different microorganisms, using a Steers replicator block. The inoculated plates were incubated at 35-37° C. for 20 to 24 hours. In addition, a control plate, using BHI agar containing no test compound, was prepared and incubated at the beginning and end of each test.
After incubation, each plate was visually inspected. The minimum inhibitory concentration (MIC) was defmed as the lowest concentration of drug yielding no growth, a slight haze, or sparsely isolated colonies on the inoculum spot as compared to the growth control.
In a separate assay representative compounds of the invention were assayed in vitro for antibacterial activity against the H. Influenza Dill AMP R strain, according to the protocol described above.

[7] = test system: PSEUDOMONAS AERUGINOSA DPHD-5263; test: In vitro antibacterial activity, MIC, BHI agar dilution; conditions: P. aeruginosa DPHD-5263, unit assumed
[8] = test system: STAPHYLOCOCCUS AUREUS A5177; test: as above; conditions: S. aureus A5177, unit assumed
STR[…] 508 = test: as above; conditions: S. agalactiae CMX 508, unit assumed
Summary of the method: (§1)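 MIC was read visually as the lowest drug concentration showing no growth, a slight haze or sparsely isolated colonies relative to a compound-free BHI plate. Plates held serial aqueous dilutions in BHI agar, were spot-inoculated with 1:100 (or 1:10) culture dilutions and incubated 20 to 24 hours at 35-37° C.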

EN[…] ATCC 8043 = test: as above; conditions: E. faecium ATCC 8043, unit assumed
Summary of the method: as §1

M[…] ATCC 4698 = test: as above; conditions: M. luteus ATCC 4698, unit assumed
Summary of the method: as §1

M[…] ATCC 9341 = test: as above; conditions: M. luteus ATCC 9341, unit assumed
Summary of the method: as §1

[9] = test system: STAPHYLOCOCCUS EPIDERMIDIS 3519; conditions: S. epidermidis 3519; BHI agar; unit assumed
[10] = test system: PROVIDENCIA STUARTII CMX 640; conditions: P. stuartii CMX 640; BHI agar; unit assumed
[11] = test system: STREPTOCOCCUS PYOGENES EES61; test: In vitro antibacterial activity, MIC, BHI agar dilution; conditions: S. pyogenes EES61, unit assumed
ESCHERICHIA COLI DC-2 = test: as above; conditions: E. coli DC-2, unit assumed
[12] = test system: PSEUDOMONAS AERUGINOSA BMH10; test: as above; conditions: P. aeruginosa BMH10, unit assumed
[13] = test system: STAPHYLOCOCCUS AUREUS 1775; test: as above; conditions: S. aureus 1775, unit assumed
[14] = test system: PSEUDOMONAS AERUGINOSA 5007; test: as above; conditions: P. aeruginosa 5007, unit assumed
[15] = test system: STAPHYLOCOCCUS AUREUS A-5278; test: as above; conditions: S. aureus A-5278, unit assumed
[16] = test system: STAPHYLOCOCCUS AUREUS ATCC 6538P; test: as above; conditions: S. aureus ATCC 6538P, 35-37° C., 20 to 24 hours, unit assumed
[17] = test system: STREPTOCOCCUS PYOGENES 930; test: as above; conditions: S. pyogenes 930, unit assumed
[18] = test system: STREPTOCOCCUS BOVIS A-5169; test: as above; conditions: S. bovis A-5169, unit assumed
ESCHERICHIA COLI JUHL = conditions: E. coli JUHL; BHI agar; unit assumed
[19] = test system: STREPTOCOCCUS PYOGENES PIU 2548; test: In vitro antibacterial activity, MIC, BHI agar dilution; conditions: S. pyogenes PIU 2548, unit assumed
PSEUDOMONAS CEPACIA 296I = test: as above; conditions: P. cepacia 296I, unit assumed
[20] = test system: MYCOBACTERIUM SMEGMATIS ATCC 114; test: as above; conditions: M. smegmatis ATCC 114, unit assumed
[21] = test system: STAPHYLOCOCCUS AUREUS NCTC10649M; test: as above; conditions: S. aureus NCTC10649M, unit assumed
[22] = test system: KLEBSIELLA PNEUMONIAE ATCC 8045; test: as above; conditions: K. pneumoniae ATCC 8045, unit assumed
ESCHERICHIA COLI KNK 437 = conditions: E. coli KNK 437; BHI agar; unit assumed
CANDIDA ALBICANS CCH 442 = test: In vitro antibacterial activity, MIC, BHI agar dilution; conditions: C. albicans CCH 442, unit assumed

Row | Structure (SMILES) | MIC (ESCHERICHIA COLI SS) [µg/mL] | MIC [1] [µg/mL] | MIC [2] [µg/mL] | MIC [3] [µg/mL] | MIC (ESCHERICHIA COLI H560) [µg/mL] | MIC [4] [µg/mL] | MIC [5] [µg/mL] | MIC [6] [µg/mL] | MIC (H. Influenza Dill AMP R) [µg/mL] | MIC [7] [µg/mL] | MIC [8] [µg/mL] | MIC (STR[…] 508) [µg/mL] | MIC (EN[…] ATCC 8043) [µg/mL] | MIC (M[…] ATCC 4698) [µg/mL] | MIC (M[…] ATCC 9341) [µg/mL] | MIC [9] [µg/mL] | MIC [10] [µg/mL] | MIC [11] [µg/mL] | MIC (ESCHERICHIA COLI DC-2) [µg/mL] | MIC [12] [µg/mL] | other results
1 | CC[C@H]1OC(=O)[C@H](C)C(=O)[C@H](C)[C@@H](O[C@@H]2O[C@H](C)C[C@H](N(C)C)[C@H]2O)[C@](C)(OC)C[C@@H](C)C2=NC3CN(CCc4cccc([N+](=O)[O-])c4)CC3N3C(=O)O[C@@]1(C)[C@H]3[C@H]2C (stereo partly shown) [Example 120] | 0.39 (≈ 0.471 µM) | > 100 | 0.2 (≈ 0.242 µM) | 0.2 (≈ 0.242 µM) | 50 (≈ 60.4 µM) | > 100 | 0.78 (≈ 0.942 µM) | > 100 | 4 (≈ 4.83 µM) | > 100 | 0.2 (≈ 0.242 µM) | 0.01 (≈ 0.0121 µM) | 0.05 (≈ 0.0604 µM) | 0.2 (≈ 0.242 µM) | 0.02 (≈ 0.0242 µM) | 0.39 (≈ 0.471 µM) | > 100 | 0.01 (≈ 0.0121 µM) | 50 (≈ 60.4 µM) | > 100 | MIC [13]: > 100 µg/mL; MIC [14]: > 100 µg/mL; MIC [15]: > 100 µg/mL; MIC [16]: 0.2 µg/mL (≈ 0.242 µM); MIC [17]: > 100 µg/mL; MIC [18]: 0.01 µg/mL (≈ 0.0121 µM); MIC (ESCHERICHIA COLI JUHL): 50 µg/mL (≈ 60.4 µM); MIC [19]: 0.39 µg/mL (≈ 0.471 µM); MIC (PSEUDOMONAS CEPACIA 296I): 100 µg/mL (≈ 121 µM); MIC [20]: 0.78 µg/mL (≈ 0.942 µM); MIC [21]: 0.2 µg/mL (≈ 0.242 µM); MIC [22]: > 100 µg/mL; MIC (ESCHERICHIA COLI KNK 437): > 100 µg/mL; MIC (CANDIDA ALBICANS CCH 442): > 100 µg/mL
2 | CC[C@H]1OC(=O)[C@H](C)C(=O)[C@H](C)[C@@H](O[C@@H]2O[C@H](C)C[C@H](N(C)C)[C@H]2O)[C@](C)(OC)C[C@@H](C)C2=NC3CN(CCN(C)C)CC3N3C(=O)O[C@@]1(C)[C@H]3[C@H]2C (stereo partly shown) [Example 129] | 0.78 (≈ 1.04 µM) | 100 (≈ 133 µM) | 1.56 (≈ 2.08 µM) | 1.56 (≈ 2.08 µM) | 50 (≈ 66.7 µM) | > 100 | 1.56 (≈ 2.08 µM) | > 100 | 64 (≈ 85.3 µM) | > 100 | 1.56 (≈ 2.08 µM) | 0.05 (≈ 0.0667 µM) | 0.39 (≈ 0.52 µM) | 1.56 (≈ 2.08 µM) | 0.2 (≈ 0.267 µM) | 1.56 (≈ 2.08 µM) | > 100 | 0.02 (≈ 0.0267 µM) | 50 (≈ 66.7 µM) | > 100 | MIC [13]: > 100 µg/mL; MIC [14]: > 100 µg/mL; MIC [15]: > 100 µg/mL; MIC [16]: 1.56 µg/mL (≈ 2.08 µM); MIC [17]: > 100 µg/mL; MIC [18]: 0.05 µg/mL (≈ 0.0667 µM); MIC (ESCHERICHIA COLI JUHL): 100 µg/mL (≈ 133 µM); MIC [19]: 3.1 µg/mL (≈ 4.13 µM); MIC (PSEUDOMONAS CEPACIA 296I): > 100 µg/mL; MIC [20]: 50 µg/mL (≈ 66.7 µM); MIC [21]: 1.56 µg/mL (≈ 2.08 µM); MIC [22]: 100 µg/mL (≈ 133 µM); MIC (ESCHERICHIA COLI KNK 437): > 100 µg/mL; MIC (CANDIDA ALBICANS CCH 442): > 100 µg/mL
3 | CC[C@H]1OC(=O)[C@H](C)C(=O)[C@H](C)[C@@H](O[C@@H]2O[C@H](C)C[C@H](N(C)C)[C@H]2O)[C@](C)(OC)C[C@@H](C)C2=NCC(CNCc3ccccc3)N3C(=O)O[C@@]1(C)[C@H]3[C@H]2C (stereo partly shown) [Example 131] | 0.2 (≈ 0.264 µM) | 50 (≈ 66.1 µM) | 0.39 (≈ 0.515 µM) | 0.39 (≈ 0.515 µM) | 12.5 (≈ 16.5 µM) | > 100 | 0.78 (≈ 1.03 µM) | 50 (≈ 66.1 µM) | 4 (≈ 5.28 µM) | > 100 | 0.39 (≈ 0.515 µM) | 0.05 (≈ 0.0661 µM) | 0.1 (≈ 0.132 µM) | 0.2 (≈ 0.264 µM) | 0.02 (≈ 0.0264 µM) | 0.39 (≈ 0.515 µM) | > 100 | 0.02 (≈ 0.0264 µM) | 25 (≈ 33 µM) | > 100 | MIC [13]: > 100 µg/mL; MIC [14]: > 100 µg/mL; MIC [15]: > 100 µg/mL; MIC [16]: 0.39 µg/mL (≈ 0.515 µM); MIC [17]: > 100 µg/mL; MIC (ESCHERICHIA COLI JUHL): 50 µg/mL (≈ 66.1 µM); MIC [19]: 0.78 µg/mL (≈ 1.03 µM); MIC (PSEUDOMONAS CEPACIA 296I): 25 µg/mL (≈ 33 µM); MIC [20]: 1.56 µg/mL (≈ 2.06 µM); MIC [21]: 0.39 µg/mL (≈ 0.515 µM); MIC (ESCHERICHIA COLI KNK 437): 25 µg/mL (≈ 33 µM); MIC (CANDIDA ALBICANS CCH 442): > 100 µg/mL
